In patent US5169838A, “Benzopyranone-β-D-thioxylosides and their use in therapy” (Fournier Industrie et Sante, priority 1989, dated 1992) one finds inhibition in vivo data, which are given here for 36 compounds.

SMILES strings stand for the structures.

The nature of the assay: venous thrombosis (venous stasis under hypercoagulation with activated factor X, Wessler technique). The class given is in vivo, male Wistar rats. Conditions: po, administered orally, rat, thrombosis induced 4 hours after treatment, thrombus weighed. The procedure: The study is performed on unfasted male Wistar rats weighing 250 to 280 g, divided up into groups of 10 animals each. The test products are administered orally as a suspension in PEG 400. A thrombosis is induced 4 hours after this treatment and the thrombus formed is removed and weighed.
Turning to `CCc1cc(=O)oc2cc(O[C@@H]3SC[C@@H](O)[C@H](O)[C@H]3O)ccc12` [Example 1, 4-ethyl-2-oxo-2H-1-benzopyran-7-yl 5-thio-β-D-xylopyranoside], 3 mg/kg produced 87% inhibition in vivo.
As for `CCc1cc(=O)oc2cc(O[C@@H]3SC[C@@H](OC(C)=O)[C@H](OC(C)=O)[C@H]3OC(C)=O)ccc12` [Example 1a, 4-ethyl-2-oxo-2H-1-benzopyran-7-yl 2,3,4-tri-O-acetyl-5-thio-β-D-xylopyranoside], the figure is 65%; as for `Cc1cc(=O)oc2ccc(O[C@@H]3SC[C@@H](O)[C@H](O)[C@H]3O)cc12` [Example 2, 4-methyl-2-oxo-2H-1-benzopyran-6-yl 5-thio-β-D-xylopyranoside], 81%; as for `CC(=O)O[C@@H]1[C@@H](OC(C)=O)[C@H](OC(C)=O)CS[C@H]1Oc1ccc2oc(=O)cc(C)c2c1` [Example 2a, 4-methyl-2-oxo-2H-1-benzopyran-6-yl 2,3,4-tri-O-acetyl-5-thio-β-D-xylopyranoside], 53%.
The result for `O=c1cc(C(F)(F)F)c2ccc(O[C@@H]3SC[C@@H](O)[C@H](O)[C@H]3O)cc2o1` [Example 3, 4-trifluoromethyl-2-oxo-2H-1-benzopyran-7-yl 5-thio-β-D-xylopyranoside] reads 80%; that for `CC(=O)O[C@@H]1[C@@H](OC(C)=O)[C@H](OC(C)=O)CS[C@H]1Oc1ccc2c(C(F)(F)F)cc(=O)oc2c1` [Example 3a, 4-trifluoromethyl-2-oxo-2H-1-benzopyran-7-yl 2,3,4-tri-O-acetyl-5-thio-β-D-xylopyranoside], 47%; that for `Cc1cc(=O)oc2c(O[C@@H]3SC[C@@H](O)[C@H](O)[C@H]3O)cccc12` [Example 4, 4-methyl-2-oxo-2H-1-benzopyran-8-yl 5-thio-β-D-xylopyranoside], 52%.
As for `CC(=O)O[C@@H]1[C@@H](OC(C)=O)[C@H](OC(C)=O)CS[C@H]1Oc1cccc2c(C)cc(=O)oc12` [Example 4a, 4-methyl-2-oxo-2H-1-benzopyran-8-yl 2,3,4-tri-O-acetyl-5-thio-β-D-xylopyranoside], the figure is 51%.
In the case of `CCCc1cc(=O)oc2cc(O[C@@H]3SC[C@@H](O)[C@H](O)[C@H]3O)ccc12` [Example 5, 2-oxo-4-propyl-2H-1-benzopyran-7-yl 5-thio-β-D-xylopyranoside], the inhibition in vivo – broadly, the relative decrease from the control value, in per cent – at 3 mg/kg worked out at 26%.
The result for `CCCc1cc(=O)oc2cc(O[C@@H]3SC[C@@H](OC(C)=O)[C@H](OC(C)=O)[C@H]3OC(C)=O)ccc12` [Example 5a, 2-oxo-4-propyl-2H-1-benzopyran-7-yl 2,3,4-tri-O-acetyl-5-thio-β-D-xylopyranoside] reads 46%; that for `Cc1cc(=O)oc2cccc(O[C@@H]3SC[C@@H](O)[C@H](O)[C@H]3O)c12` [Example 6, 4-methyl-2-oxo-2H-1-benzopyran-5-yl 5-thio-β-D-xylopyranoside], 42%.
As for `Cc1cc(=O)oc2cccc(S[C@@H]3SC[C@@H](O)[C@H](O)[C@H]3O)c12` [Example 7, 4-methyl-2-oxo-2H-1-benzopyran-5-yl 1,5-dithio-β-D-xylopyranoside], the figure is 38%; as for `Cc1cc(=O)oc2cc(S[C@@H]3SC[C@@H](O)[C@H](O)[C@H]3O)ccc12` [Example 8, 4-methyl-2-oxo-2H-1-benzopyran-7-yl 1,5-dithio-β-D-xylopyranoside], 46%; as for `CC(=O)O[C@@H]1[C@@H](OC(C)=O)[C@H](Sc2ccc3c(C)cc(=O)oc3c2)SC[C@H]1OC(C)=O` [Example 8a, 4-methyl-2-oxo-2H-1-benzopyran-7-yl 2,3,4-tri-O-acetyl-1,5-dithio-β-D-xylopyranoside], 65%.
The result for `Cc1cc(=O)oc2c(S[C@@H]3SC[C@@H](O)[C@H](O)[C@H]3O)cccc12` [Example 9, 4-methyl-2-oxo-2H-1-benzopyran-8-yl 1,5-dithio-β-D-xylopyranoside] reads 31%; that for `Cc1cc(=O)oc2ccc(S[C@@H]3SC[C@@H](O)[C@H](O)[C@H]3O)cc12` [Example 10, 4-methyl-2-oxo-2H-1-benzopyran-6-yl 1,5-dithio-β-D-xylopyranoside], 37%; that for `CC(=O)O[C@@H]1[C@@H](OC(C)=O)[C@H](Sc2ccc3oc(=O)cc(C)c3c2)SC[C@H]1OC(C)=O` [Example 10a, 4-methyl-2-oxo-2H-1-benzopyran-6-yl 2,3,4-tri-O-acetyl-1,5-dithio-β-D-xylopyranoside], 32%.
For `O=c1cc(C(F)(F)F)c2ccc(S[C@@H]3SC[C@@H](O)[C@H](O)[C@H]3O)cc2o1` [Example 11, 4-trifluoromethyl-2-oxo-2H-1-benzopyran-7-yl 1,5-dithio-β-D-xylopyranoside], the inhibition in vivo at 3 mg/kg turned out to be 36%.
As for `Cc1c(Cl)c(=O)oc2cc(S[C@@H]3SC[C@@H](O)[C@H](O)[C@H]3O)ccc12` [Example 12, 3-chloro-4-methyl-2-oxo-2H-1-benzopyran-7-yl 1,5-dithio-β-D-xylopyranoside], the figure is 65%.
The result for `CC(=O)O[C@@H]1[C@@H](OC(C)=O)[C@H](Sc2ccc3c(C)c(Cl)c(=O)oc3c2)SC[C@H]1OC(C)=O` [Example 12a, 3-chloro-4-methyl-2-oxo-2H-1-benzopyran-7-yl 2,3,4-tri-O-acetyl-1,5-dithio-β-D-xylopyranoside] reads 32%; that for `CCc1cc(=O)oc2cc(S[C@@H]3SC[C@@H](O)[C@H](O)[C@H]3O)ccc12` [Example 13, 4-ethyl-2-oxo-2H-1-benzopyran-7-yl 1,5-dithio-β-D-xylopyranoside], 54%; that for `CCc1cc(=O)oc2cc(S[C@@H]3SC[C@@H](OC(C)=O)[C@H](OC(C)=O)[C@H]3OC(C)=O)ccc12` [Example 13a, 4-ethyl-2-oxo-2H-1-benzopyran-7-yl 2,3,4-tri-O-acetyl-1,5-dithio-β-D-xylopyranoside], 58%.
The result for `CCCc1cc(=O)oc2cc(S[C@@H]3SC[C@@H](O)[C@H](O)[C@H]3O)ccc12` [Example 14, 2-oxo-4-propyl-2H-1-benzopyran-7-yl 1,5-dithio-β-D-xylopyranoside] reads 43%; that for `CCCc1cc(=O)oc2cc(S[C@@H]3SC[C@@H](OC(C)=O)[C@H](OC(C)=O)[C@H]3OC(C)=O)ccc12` [Example 14a, 2-oxo-4-propyl-2H-1-benzopyran-7-yl 2,3,4-tri-O-acetyl-1,5-dithio-β-D-xylopyranoside], 25%; that for `O=c1oc2cc(S[C@@H]3SC[C@@H](O)[C@H](O)[C@H]3O)ccc2c2c1CCCC2` [Example 15, 7,8,9,10-tetrahydro-6-oxo-6H-dibenzo[b,d]pyran-3-yl 1,5-dithio-β-D-xylopyranoside], 31%.
`CC(=O)O[C@@H]1[C@@H](OC(C)=O)[C@H](Sc2ccc3c4c(c(=O)oc3c2)CCCC4)SC[C@H]1OC(C)=O` [Example 15a, 7,8,9,10-tetrahydro-6-oxo-6H-dibenzo[b,d]pyran-3-yl 2,3,4-tri-O-acetyl-1,5-dithio-β-D-xylopyranoside] displayed an inhibition in vivo at 3 mg/kg of 23%.
The result for `Cc1cc(=O)oc2cc(O[C@@H]3SC[C@@H](O)[C@H](O)[C@H]3O)ccc12` [Example 16, 4-methyl-2-oxo-2H-1-benzopyran-7-yl 5-thio-β-D-xylopyranoside] reads 63%; that for `CC(=O)O[C@@H]1[C@@H](OC(C)=O)[C@H](OC(C)=O)CS[C@H]1Oc1ccc2c(C)cc(=O)oc2c1` [Example 16a, 4-methyl-2-oxo-2H-1-benzopyran-7-yl 2,3,4-tri-O-acetyl-5-thio-β-D-xylopyranoside], 63%; that for `Cc1c(Cl)c(=O)oc2cc(O[C@@H]3SC[C@@H](O)[C@H](O)[C@H]3O)ccc12` [Example 17, 3-chloro-4-methyl-2-oxo-2H-1-benzopyran-7-yl 5-thio-β-D-xylopyranoside], 64%.
As for `CC(=O)O[C@@H]1[C@@H](OC(C)=O)[C@H](OC(C)=O)CS[C@H]1Oc1ccc2c(C)c(Cl)c(=O)oc2c1` [Example 17a, 3-chloro-4-methyl-2-oxo-2H-1-benzopyran-7-yl 2,3,4-tri-O-acetyl-5-thio-β-D-xylopyranoside], the figure is 67%; as for `Cc1c(-c2ccccc2)c(=O)oc2cc(O[C@@H]3SC[C@@H](O)[C@H](O)[C@H]3O)ccc12` [Example 18, 4-methyl-2-oxo-3-phenyl-2H-1-benzopyran-7-yl 5-thio-β-D-xylopyranoside], 43%; as for `CC(=O)O[C@@H]1[C@@H](OC(C)=O)[C@H](OC(C)=O)CS[C@H]1Oc1ccc2c(C)c(-c3ccccc3)c(=O)oc2c1` [Example 18a, 4-methyl-2-oxo-3-phenyl-2H-1-benzopyran-7-yl 2,3,4-tri-O-acetyl-5-thio-β-D-xylopyranoside], 20%.
As for `CC(C)c1cc(=O)oc2cc(O[C@@H]3SC[C@@H](O)[C@H](O)[C@H]3O)ccc12` [Example 19, 4-(1-methylethyl)-2-oxo-2H-1-benzopyran-7-yl 5-thio-β-D-xylopyranoside], the figure is 36%; as for `Cc1cc(=O)c2ccc(O[C@@H]3SC[C@@H](O)[C@H](O)[C@H]3O)cc2o1` [Example 20, 2-methyl-4-oxo-4H-1-benzopyran-7-yl 5-thio-β-D-xylopyranoside], 53%; as for `CC(=O)O[C@@H]1[C@@H](OC(C)=O)[C@H](OC(C)=O)CS[C@H]1Oc1ccc2c(=O)cc(C)oc2c1` [Example 20a, 2-methyl-4-oxo-4H-1-benzopyran-7-yl 2,3,4-tri-O-acetyl-5-thio-β-D-xylopyranoside], 20%.
For the compound `CCc1cc(=O)c2ccc(O[C@@H]3SC[C@@H](O)[C@H](O)[C@H]3O)cc2o1` [Example 21, 2-ethyl-4-oxo-4H-1-benzopyran-7-yl 5-thio-β-D-xylopyranoside], the inhibition in vivo at 3 mg/kg was 70%.
